What was measured:
[1] = target: T1, 3-hydroxy-3-methylglutaryl-coenzyme A reductase (Rattus norvegicus) (UniProt P51639); test: In vivo hepatic cholesterol synthesis inhibitory activity in male Sprague-Dawley rat after oral administration at a concentration of 2.0 mg/kg; format: functional, organism-based; set-up: dose 2 mg/kg
T1 sequence (whole entry): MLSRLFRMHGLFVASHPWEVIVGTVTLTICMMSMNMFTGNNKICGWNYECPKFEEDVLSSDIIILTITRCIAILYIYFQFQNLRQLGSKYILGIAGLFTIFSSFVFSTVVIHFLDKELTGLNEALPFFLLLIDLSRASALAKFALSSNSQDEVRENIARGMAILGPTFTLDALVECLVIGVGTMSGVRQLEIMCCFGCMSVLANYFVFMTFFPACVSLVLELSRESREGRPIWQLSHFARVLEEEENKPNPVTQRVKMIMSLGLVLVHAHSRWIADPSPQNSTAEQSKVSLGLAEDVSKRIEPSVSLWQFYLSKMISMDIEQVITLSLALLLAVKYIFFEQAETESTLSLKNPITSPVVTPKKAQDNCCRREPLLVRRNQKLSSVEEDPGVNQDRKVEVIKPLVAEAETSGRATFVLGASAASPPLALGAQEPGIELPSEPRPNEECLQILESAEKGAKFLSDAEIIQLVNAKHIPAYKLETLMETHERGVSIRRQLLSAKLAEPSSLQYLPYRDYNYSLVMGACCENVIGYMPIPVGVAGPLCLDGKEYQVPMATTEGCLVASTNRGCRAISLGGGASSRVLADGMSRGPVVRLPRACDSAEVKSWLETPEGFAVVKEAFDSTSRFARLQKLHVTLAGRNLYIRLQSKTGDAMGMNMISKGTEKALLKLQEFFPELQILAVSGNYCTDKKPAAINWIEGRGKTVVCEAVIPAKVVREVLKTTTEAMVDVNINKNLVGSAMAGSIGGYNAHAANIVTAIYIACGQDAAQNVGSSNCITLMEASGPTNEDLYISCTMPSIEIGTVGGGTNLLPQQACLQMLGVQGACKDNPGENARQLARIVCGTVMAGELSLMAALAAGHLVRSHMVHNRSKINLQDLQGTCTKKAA

[2] = target: T2, 3-hydroxy-3-methylglutaryl-coenzyme A reductase (Rattus norvegicus, UniProt P51639); test: In vitro HMG-CoA reductase inhibitory activity to inhibit sterol synthesis in cell free system in rat
T2 sequence (P51639 whole entry): T1 sequence (whole entry)

[3] = target: T1, 3-hydroxy-3-methylglutaryl-coenzyme A reductase (Rattus norvegicus); test: In vivo hepatic cholesterol synthesis inhibitory activity in male Sprague-Dawley rat after oral administration at a concentration of 0.2 mg/kg; format: functional, organism-based; set-up: dose 0.2 mg/kg
[4] = target: T3, 3-hydroxy-3-methylglutaryl-coenzyme A reductase (Homo sapiens) (UniProt P04035); test: In vitro HMG-CoA reductase inhibitory activity required to inhibit cellular steroidgenesis in Hep G2 cells (human hepatoma cell line) with pravastatin as reference compound; format: cell-based; conditions: HepG2
T3 sequence (whole entry): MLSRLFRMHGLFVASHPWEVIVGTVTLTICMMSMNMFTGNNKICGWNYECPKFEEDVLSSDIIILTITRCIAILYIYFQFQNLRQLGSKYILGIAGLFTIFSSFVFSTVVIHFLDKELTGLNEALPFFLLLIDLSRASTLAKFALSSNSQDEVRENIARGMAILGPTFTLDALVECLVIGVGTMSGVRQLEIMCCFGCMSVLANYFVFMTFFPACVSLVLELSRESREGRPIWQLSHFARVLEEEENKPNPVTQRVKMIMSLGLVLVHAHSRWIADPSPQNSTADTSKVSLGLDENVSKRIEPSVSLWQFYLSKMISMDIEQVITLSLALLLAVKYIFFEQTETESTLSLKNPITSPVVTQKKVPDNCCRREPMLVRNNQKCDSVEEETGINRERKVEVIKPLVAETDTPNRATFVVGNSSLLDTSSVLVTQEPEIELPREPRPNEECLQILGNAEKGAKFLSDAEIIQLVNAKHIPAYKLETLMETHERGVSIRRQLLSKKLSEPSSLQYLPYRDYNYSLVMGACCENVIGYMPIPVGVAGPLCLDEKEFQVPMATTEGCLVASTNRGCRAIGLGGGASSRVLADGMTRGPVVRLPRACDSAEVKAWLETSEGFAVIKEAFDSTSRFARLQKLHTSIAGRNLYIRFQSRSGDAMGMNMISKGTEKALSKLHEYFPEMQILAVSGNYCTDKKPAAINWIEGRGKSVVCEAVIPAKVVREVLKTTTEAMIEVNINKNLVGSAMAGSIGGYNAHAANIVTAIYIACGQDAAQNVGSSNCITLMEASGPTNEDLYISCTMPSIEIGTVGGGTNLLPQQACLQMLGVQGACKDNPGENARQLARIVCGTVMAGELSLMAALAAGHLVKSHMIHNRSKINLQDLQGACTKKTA

[5] = target: T1, 3-hydroxy-3-methylglutaryl-coenzyme A reductase (Rattus norvegicus); test: In vitro rat HMG-CoA reductase inhibitory activity required to inhibit sterol synthesis in cell free system with pravastatin as reference compound

| SMILES | inhibition [1] | IC50 [2] | inhibition [3] | Relative potency [4] | Relative potency [5] |
| --- | --- | --- | --- | --- | --- |
| CC[C@H](C)C(=O)O[C@H]1C[C@H](O)C=C2C=C[C@H](C)[C@H](CC[C@@H](O)C[C@@H](O)CC(=O)O)[C@H]21 [PRAVASTATIN SODIUM] | 27.8% | 4.2 nM | 35.4% | – | – |
| Cc1nn(C)c2nc(C3CC3)c(/C=C/[C@@H](O)C[C@@H](O)CC(=O)O)c(-c3ccc(F)cc3)c12 | 74.3% | – | 35.5% | 118 | 228 |
| O=C(O)C[C@H](O)C[C@H](O)/C=C/c1c(C2CC2)nc2sccc2c1-c1ccc(F)cc1 | 70.6% | – | 38.1% | 60 | 229 |
